Assay results from patent publication US11026917B2, “Antioxidative stress compositions, methods of preparing and uses thereof” (priority 2016, dated 2021).

Assay: Concentrations of chemopreventive compounds and metabolites in dog serum by LC-MS/MS
Format: in vivo
Procedure: Serum was isolated from whole blood obtained during the two phases of the trial and analysed by LC-MS/MS.
Whole blood (6 ml) was collected from each canine subject at the end of the first and second phases of the study. Blood was obtained by venipuncture from either the cephalic or jugular vein (typically with an 18-20 gauge needle attached to a 10 ml syringe). Manual restraint and aseptic techniques were used. The blood from each dog was placed in labelled collection tubes (2 ml in lavender EDTA collection tubes, 1 ml in green lithium heparin collection tubes, and 3 ml in red silicone coated tubes). The lavender tubes were inverted and used to run Complete Blood Counts (CBC) and for isolation of lymphocytes, the green tubes were inverted and used to run Comprehensive Chemistry Blood Profiles (CCBP), and the blood within the red tubes were allowed to clot, and then centrifuged for 15 min at 3400 rpm to obtain serum. The serum was frozen prior to analysis by LC-MS/MS. The CBC and CCBPs were run on Abaxis™ VetScan machines, particularly the VS2 and HMS.
Liquid-liquid extraction was used to prepare dog serum for mass spectrometric analysis. Briefly, 300 μl of serum was mixed with 900 μl of ice-cold acetonitrile. Each sample was vortex mixed for 20 sec and then centrifuged for 10 min at 13,000×g. The supernatant was removed and evaporated to dryness under a stream of nitrogen, and each extract was reconstituted in 100 μl of acetonitrile/water (20:80, v/v) prior to analysis using LC-MS/MS.
Both instruments were equipped with negative ion electrospray and interfaced to Shimadzu HPLC systems (Prominence Ark. or Nexera, respectively). A Waters (Milford, Mass.) XBridge C18 column (2.1×100 mm; 2.5 μm) was used for chromatographic separations. The solvent system consisted of a 5-min linear gradient from 10% to 90% acetonitrile in water at a flow rate of 400 μl/min. The injection volume was 10 μl.
For quantitative analysis, selected reaction monitoring (SRM) was used with collision-induced dissociation and argon as the collision gas. Deprotonated molecules of each analyte were used as precursor ions, and the SRM transitions of the two most abundant product ions were selected as quantifiers and qualifiers, respectively. In some cases, only one SRM transition (quantifier) was used due to the low abundances of other fragment ions. […] The SRM transitions for genistein were m/z 269 to 89 and m/z 269 to 187, and the SRM transitions for genistein glucuronide and genistein sulfate were m/z 445 to 269 and m/z 349 to 269, respectively. Quercetin was measured using the SRM transitions of m/z 301 to 151 and m/z 301 to 179, and its glucuronide and sulfate metabolites were monitored using the transitions of m/z 477 to 301 and m/z 381 to 301, respectively. Synthetic isopentyl naringenin was used as an internal standard (SRM transition m/z 341 to 119).

Compound: COc1cc(/C=C/C(=O)CC(=O)/C=C/c2ccc(O[C@@H]3O[C@H](C(=O)O)[C@@H](O)[C@H](O)[C@H]3O)c(OC)c2)ccc1O [Curcumin glucuronide]
- detection in dog serum (in words) (dog, in vivo): detected at low levels in serum of two dogs

Compound: O=c1oc2c(O)c(O)cc3c(=O)oc4c(O)c(O)cc1c4c23 [Ellagic acid]
- detection in dog serum (in words) (dog, in vivo): No ellagic acid or curcumin was detected in serum

Compound: O=c1c(-c2ccc(O)cc2)coc2cc(O)cc(O)c12 [Genistein]
- detection in dog serum (in words) (second phase, after 3 weeks of two biscuits/day): no unconjugated genistein was detected

Compound: O=c1c(O)c(-c2ccc(O)c(O)c2)oc2cc(O)cc(O)c12 [Quercetin]
- Concentration in serum, Second phase (dog, in vivo, 3 weeks): 0.002 ± 0.001 µg/mL

Compound: Oc1ccc(C=Cc2cc(O)cc(O)c2)cc1 [Resveratrol]
- concentration at 3 weeks (dog, in vivo): 0.0193 ± 0.011 µg/mL

Compound: O=S(=O)(O)Oc1cc(O)cc(/C=C\c2ccc(O)cc2)c1 [cis-Resveratrol-3-sulfate]
- concentration at 3 weeks (dog, in vivo): 0.0136 ± 0.00527 µg/mL

Compound: O=S(=O)(O)Oc1cc(O)cc(C=Cc2ccc(O)cc2)c1 [resveratrol-3-sulfate]
- detection in dog serum (in words) (dog, in vivo): most abundant form of resveratrol in dog serum

Compound: O=S(=O)(O)Oc1ccc(/C=C/c2cc(O)cc(O)c2)cc1 [trans-Resveratrol-4′-sulfate]
- concentration at 3 weeks (dog, in vivo): 0.0444 ± 0.0122 µg/mL
